# Experimental data from patent US11376307B2, “Compositions and methods of treating cancer with glycomimetic peptides” (SUSAVION BIOSCIENCES, INC., priority 2018, dated 2022).
# Positions of bridges follow the written chain, without caps; N, C: chain ends. Chains are numbered I, II in the order given.
# Legend:
# human ASGPR-1 = target: T1, human ASGPR-1 (Homo sapiens, UniProt P07306); assay: Inhibition of binding of multivalent GalNAc-PAA; conditions: about 200 pmoles biotinylated GalNAc-PAA, increasing peptide
# T1 construct: The extracellular domains of receptors, which were fused with the Fc domain of immunoglobulin IgG; purchased R&D Systems
# T1 sequence (P07306 62-291 limits assumed): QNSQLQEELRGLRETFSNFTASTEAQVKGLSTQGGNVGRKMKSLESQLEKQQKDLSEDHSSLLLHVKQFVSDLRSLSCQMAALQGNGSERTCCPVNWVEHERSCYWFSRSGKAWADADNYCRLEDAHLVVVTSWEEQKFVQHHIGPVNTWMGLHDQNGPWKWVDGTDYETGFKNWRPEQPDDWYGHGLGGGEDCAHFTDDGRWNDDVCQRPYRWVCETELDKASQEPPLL
# Method: (§1) FIGS. 3A-3D. sv6D as a mimetic of GalNAc. (FIG. 3A) Inhibition by sv6D of binding of multivalent GalNAc-PAA (GlycoTech Corp., Frederick, Md.) to recombinant rat CLEC10A and human ASGPR-1. The reaction mixture included approximately 200 pmoles of biotinylated GalNc-PAA and increasing concentrations of peptide. The figure includes average values from 3 independent experiments. (FIG. 3B) Biotinylated sv6D or GalNAc-PAA were incubated with rabbit antiserum raised against the 6D sequence (NQHTPR) (SEQ ID NO:1) conjugated to keyhole limpet hemocyanin (KLH). Binding was detected with streptavidin-peroxidase conjugate. Similar data were obtained in 2 experiments. (FIG. 3C) Inhibition by EGTA of binding of sv6D (pattern) or svL4 (solid) to CLEC10A and ASGPR-1, respectively. EGTA (1 mM) was added to the final concentrations indicated to assays. Retention of bound CLEC10A was determined by incubation with biotinylated anti-CLEC10A (goat IgG, R&D Systems) and detection with streptavidin-peroxidase conjugate (light grey circle). Similar data were obtained in 3 experiments. (FIG. 3D) Binding of svL4 and sv6D to human recombinant CLEC10A and ASGPR-1 as a function of concentration of peptide in the assay. The figure is representative of 4 separate assays.
# (§2) To further determine whether sv6D interacts with the actual sugar binding site, the ability of sv6D to compete with GalNAc-PAA for binding was assayed.
# recombinant rat CLEC10A = target: T2, recombinant rat CLEC10A (Rattus norvegicus, UniProt P49301); assay: Inhibition of binding of multivalent GalNAc-PAA
# T2 construct: The extracellular domains of receptors, which were fused with the Fc domain of immunoglobulin IgG; purchased R&D Systems
# T2 sequence (P49301 59-306 limits assumed): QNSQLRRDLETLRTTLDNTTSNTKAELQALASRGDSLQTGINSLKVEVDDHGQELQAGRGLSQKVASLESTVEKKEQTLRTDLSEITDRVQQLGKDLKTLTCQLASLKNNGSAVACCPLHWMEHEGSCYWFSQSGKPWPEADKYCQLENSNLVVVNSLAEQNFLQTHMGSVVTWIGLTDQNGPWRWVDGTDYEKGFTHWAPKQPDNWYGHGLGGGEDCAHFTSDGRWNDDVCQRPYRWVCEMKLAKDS
# Method: as §1, §2
# [1] = tested on: ID8 ovarian cancer cell line; assay: Murine model of ovarian cancer, sv6D and anti-PD-1; format: in vivo, C57BL/6 mice
# Method: FIGS. 9A-9B. Combination study of sv6D and anti-PD-1. (FIG. 9A) The design of the experiment and extension of survival of C57BL/6 female mice implanted with ovarian cancer cell line ID8 and treatments with anti-PD-1 and sv6D. Anti-PD-1 (rat anti-mouse, clone 29F.1A12) was administered intraperitoneally every other day, 200 μg protein per dose, between day 41 and 49 (white bars). sv6D was administered subcutaneously every other day at 0.1 nmol/g, starting on day 36, 51 or 87 (grey bars). […] (FIG. 9B) Kaplan-Meier survival curves of mice treated with anti-PD-1 and/or sv6D. […] For group 3, the Mantel-Cox log-rank test p=0.003 indicates the significance between treatment with the combination and antibody alone. Anti-PD-1, square; sv6D, dark triangle; anti-PD-1 followed by sv6D (Group 3 in FIG. 9A), light triangle; PBS, circle.
# We tested whether sv6D would extend effectiveness of anti-PD-1. Five doses of anti-PD-1 (200 μg in PBS) were injected intraperitoneally on alternate days between days 41 and 49. sv6D was injected subcutaneously immediately after the treatment with anti-PD-1 and continued on alternate days to the end of the study (FIG. 9A, Group 3).
# [2] = Serum cytokine array (L-308) in healthy mice; format: in vivo, Balb/c mice; conditions: svL4 s.c., 4 h, separate experiment
# Method: Ratios of treated vs. untreated samples obtained in a separate experiment with healthy Balb/c mice are shown in the right-hand column of Table 2 for comparison. The most significant increase in the serum of healthy mice treated with the peptide was in the amount of soluble HVEM (Herpes virus entry mediator, also designated TNFRSF14), which was a prominent protein in serum and increased approximately 10-fold within 4 h after treatment. In the tumor-bearing mice, the level of soluble HVEM in treated animals was similar to that in treated healthy mice, but the level in untreated animals was higher than that in healthy control mice.
# [3] = tested on: 4T1 breast cancer-bearing mice; conditions: 0.1 nmol/g svL4 s.c., 4 h
# Method: When tumors reached a volume of at least 500 mm^3, animals were randomized into groups of 3 and dosed with either 0.1 or 1.0 nmol/g of svL4. At 4 h post dose, terminal blood was collected from 3 animals per group and prepared for serum. Sera were also collected from healthy Balb/c mice by the same procedure. Changes in the levels of cytokines/chemokines in sera from breast cancer-bearing and healthy mice were analyzed with the mouse L-308 membrane array by RayBiotech, Inc. (Norcross, Ga.) (Table 2).
# Markers of lymphocyte and monocyte activation in response to 0.1 nmol/g svL4 in Balb/c mice bearing breast tumors are compared with healthy mice. Sera from three animals were pooled for analysis with an array of 308 soluble factors.
# After the tumors had grown over a period of 10 to 12 days to a size of −500 mm^3, svL4 was injected subcutaneously at doses of 0.1 or 1.0 nmol/g. Sera were prepared 4 h after injection and analyzed with an array of 308 cytokines/chemokines.
# [4] = High = control value negligible or low
substance,measurement,setting,value
"I: H-NQHTPRGGGSKK-NH2 / II: H-NQHTPRGGGSK / III: H-NQHTPRGGGS / IV: H-NQHTPRGGGS (amide I:11-IV:C, I:12-II:C, II:11-III:C) [sv6D]",Inhibition of binding of GalNAc-PAA to ASGPR-1,human ASGPR-1,inhibited
same,Inhibition of binding of GalNAc-PAA to CLEC10A,"recombinant rat CLEC10A; about 200 pmoles biotinylated GalNAc-PAA, increasing peptide",inhibited
same,Avidity relative to multivalent GalNAc-PAA,recombinant rat CLEC10A; from competition experiment,over an order of magnitude greater
same,Ascites formation,[1]; Group 5: sv6D from day 87 after anti-PD-1,essentially complete suppression of ascites formation
same,Survival,[1]; Group 6: hiatus of one week after a week of sv6D,survived only slightly longer than animals treated with PBS
same,Survival,[1]; combination of anti-PD-1 with sv6D (Group 4),maximal survival
same,Survival,"[1]; single agent: anti-PD-1 200 μg i.p. x5 (Group 1), sv6D 0.1 nmol/g s.c. alternate days (Group 7)",maximal survival
same,Accumulation of ascites,[1]; sv6D alone vs. anti-PD-1,inhibited accumulation of ascites to a greater extent than anti-PD-1
"I: H-VQATQSNQHTPRGGGSKK-NH2 / II: H-VQATQSNQHTPRGGGSK / III: H-VQATQSNQHTPRGGGS / IV: H-VQATQSNQHTPRGGGS (amide I:17-IV:C, I:18-II:C, II:17-III:C) [svL4]",Ratio of level of IFN-γ in sera (treated vs. untreated),[2],no change
same,Ratio of level of IL-1α in sera (treated vs. untreated),[2],0.86
same,Ratio of level of IL-2 in sera (treated vs. untreated),[2],no change
same,Ratio of level of IL-12p70 in sera (treated vs. untreated),[2],no change
same,Ratio of level of IL-17 in sera (treated vs. untreated),[2],no change
same,Ratio of level of IL-21 in sera (treated vs. untreated),[2],no change
same,Ratio of level of IL-23 in sera (treated vs. untreated),[2],no change
same,Ratio of level of IL-27 in sera (treated vs. untreated),[2],0.55
same,Ratio of level of IL-28 in sera (treated vs. untreated),[2],no change
same,Ratio of level of IL-31 in sera (treated vs. untreated),[2],no change
same,Ratio of level of Lymphotoxin-α in sera (treated vs. untreated),[2],0.74
same,Ratio of level of TNFα in sera (treated vs. untreated),[2],0.21
same,Ratio of level of IFN-γ in sera (treated vs. untreated),[3]; [4],High
same,Ratio of level of IL-17 in sera (treated vs. untreated),[3]; [4],High
same,Ratio of level of IL-21 in sera (treated vs. untreated),[3]; [4],High
same,Ratio of level of IL-23 in sera (treated vs. untreated),[3]; [4],High
same,Ratio of level of IL-1α in sera (treated vs. untreated),[3]; pooled sera of 3,3
same,Ratio of level of IL-2 in sera (treated vs. untreated),[3]; pooled sera of 3,56
same,Ratio of level of IL-12p70 in sera (treated vs. untreated),[3]; pooled sera of 3,3
same,Ratio of level of IL-27 in sera (treated vs. untreated),[3]; pooled sera of 3,4.5
same,Ratio of level of IL-28 in sera (treated vs. untreated),[3]; pooled sera of 3,4.3
same,Ratio of level of IL-31 in sera (treated vs. untreated),[3]; pooled sera of 3,3.5
same,Ratio of level of Lymphotoxin-α in sera (treated vs. untreated),[3]; pooled sera of 3,12.5
same,Ratio of level of TNFα in sera (treated vs. untreated),[3]; pooled sera of 3,45
same,Ratio of level of sHVEM in sera (treated vs. untreated),[3]; pooled sera of 3,2
